{"source": "the supplement of paper PMC10307832", "assay_in_all_cases": "relative viability (nuclei count vs DMSO), 5 days (fraction); higher = more cells survive", "key": {"[1]": {"compound": "CC(C)C[C@H](NC(=O)[C@H](Cc1ccccc1)NC(=O)c1cnccn1)B(O)O [Bortezomib] + CS(=O)(=O)N1CCN(Cc2cc3nc(-c4cccc5[nH]ncc45)nc(N4CCOCC4)c3s2)CC1 [Pictilisib] (partner 1 µM)", "how_it_was_run": "(§1)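 For relative viability, nuclei counts in treated wells were divided by those in vehicle wells. Lung cancer cell lines had been pin-tool dosed in 1536-well plates the day after seeding and cultured for 5 days, then fixed and stained in one step (final 0.05% Triton X-100, 1% formaldehyde, 1 ug/ml Hoechst) and imaged at 4×. Doses were one drug alone or a fixed anchor-drug dose plus five library-drug doses (not always all listed) in √10 steps, and values are duplicate-plate medians.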"}, "[2]": {"compound": "CC(C)C[C@H](NC(=O)[C@H](Cc1ccccc1)NC(=O)c1cnccn1)B(O)O [Bortezomib] + COc1cc2c(Oc3ccc(NC(=O)C4(C(=O)Nc5ccc(F)cc5)CC4)cc3F)ccnc2cc1OCCCN1CCOCC1 [Foretinib] (partner 0.25 µM)", "how_it_was_run": "as §1"}, "[3]": {"compound": "CC1=CC(=NN1)NC2=CC(=NC(=N2)/C=C/C3=CC=CC=C3)N4CCN(CC4)C + CC(=O)c1c(C)c2cnc(Nc3ccc(N4CCNCC4)cn3)nc2n(C2CCCC2)c1=O [Palbociclib] (partner 0.5 µM)", "how_it_was_run": "as §1"}, "[4]": {"compound": "CC1=CC(=NN1)NC2=CC(=NC(=N2)/C=C/C3=CC=CC=C3)N4CCN(CC4)C + COc1cccc2cc(-c3nc([C@H]4CC[C@H](C(=O)O)CC4)n4ncnc(N)c34)[nH]c12 [OSI-027] (partner 0.5 µM)", "how_it_was_run": "as §1"}}, "data": [{"cell line": "NCI-H650", "values": [{"measurement": "relative viability", "setting": "[1]; first compound 0.000632 µM", "value": 0.695}, {"measurement": "relative viability", "setting": "[1]; first compound 0.002 µM", "value": 0.551}, {"measurement": "relative viability", "setting": "[1]; first compound 0.006325 µM", "value": 0.328}, {"measurement": "relative viability", "setting": "[1]; first compound 0.02 µM", "value": 0.205}, {"measurement": "relative viability", "setting": "[2]; first compound 0.000632 µM", "value": 1.08}, {"measurement": "relative viability", "setting": "[2]; first compound 0.002 µM", "value": 0.847}, {"measurement": "relative viability", "setting": "[2]; first compound 0.006325 µM", "value": 0.4}, {"measurement": "relative viability", "setting": "[2]; first compound 0.02 µM", "value": 0.173}, {"measurement": "relative viability", "setting": "[3]; first compound 0.08 µM", "value": 0.288}, {"measurement": "relative viability", "setting": "[3]; first compound 0.253 µM", "value": 0.321}, {"measurement": "relative viability", "setting": "[3]; first compound 0.8 µM", "value": 0.339}, {"measurement": "relative viability", "setting": "[3]; first compound 2.53 µM", "value": 0.294}, {"measurement": "relative viability", "setting": "[3]; first compound 8 µM", "value": 0.177}, {"measurement": "relative viability", "setting": "[4]; first compound 0.253 µM", "value": 0.597}, {"measurement": "relative viability", "setting": "[4]; first compound 0.8 µM", "value": 0.575}, {"measurement": "relative viability", "setting": "[4]; first compound 2.53 µM", "value": 0.47}, {"measurement": "relative viability", "setting": "[4]; first compound 8 µM", "value": 0.172}]}]}
